{"source": "paper PMC12473014", "about": "“Granzyme B PET Imaging Enables Early Assessment of Immunotherapy Response in a Humanized Melanoma Mouse Model” (Pharmaceuticals, 2025)", "key": {"[1]": {"biological_target": "T1, active human GZB (Homo sapiens, UniProt P10144)", "T1 sequence (P10144 21-247)": "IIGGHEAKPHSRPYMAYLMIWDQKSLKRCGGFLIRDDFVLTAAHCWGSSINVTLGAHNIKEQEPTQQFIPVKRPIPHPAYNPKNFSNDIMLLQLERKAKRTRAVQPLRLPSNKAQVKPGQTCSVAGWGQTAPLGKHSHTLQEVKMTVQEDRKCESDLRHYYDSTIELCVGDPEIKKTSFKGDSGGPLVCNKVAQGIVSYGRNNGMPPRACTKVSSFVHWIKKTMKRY", "test": "Fluorometric human GZB enzymatic inhibition assay (ab157403)", "format": "biochemical", "parameters": "Each dilution was combined with 0.1 µg/µL of active GZB protein (ab285779); purchased ab285779", "details": "0.1 µg/µL active GZB, 5000 to 0.00002048 nM, 50 µL, duplicate, kinetic mode after 90 min at 27 °C, CI: 2.95–5.98, read-out: inhibition constant (Ki)", "method": "(§1) NOTA-CYT-200 was synthesized (CytoSite Biopharma, Sudbury, MA, USA) with a high chemical purity (>95%) and characterized using mass spectrometry. We performed a fluorometric human GZB activity assay (ab157403) to determine the inhibitor constant (Ki) of NOTA-CYT-200 for active human GZB enzyme activity in vitro. NOTA-CYT-200 was serially diluted with GZB assay buffer, starting from 5000 to 0.00002048 nanomolar. Each dilution was combined with 0.1 µg/µL of active GZB protein (ab285779) and the provided fluorophore. Each well contained a total volume of 50 µL, and all the samples were tested in duplicate using a microplate reader in kinetic mode (BioTek Cytation5, Winooski, VT, USA) after 90 min of incubation at 27 °C. The in vivo specificity of NOTA-CYT-200 labeled with 68gallium (^68Ga-NOTA-CYT-200) for the active human GZB protein was evaluated in non-tumor-bearing naive NSG mice (n = 8) following a subcutaneous injection of 80 µL of Matrigel alone (Corning™ Matrigel™ Membrane Matrix) or 65 µL of Matrigel containing 15 µL of active human GZB protein (0.05 µg/µL, totaling 0.75 µg GZB) into each animal’s shoulder. […] The uptake of ^68Ga-NOTA-CYT-200, measured as standard uptake values (SUVs) within the implanted regions, was assessed using the VivoQuant™ software, version 4.0 (InVicro, Needham, MA, USA). […]"}, "[2]": {"test_system": "active human GZB protein", "test": "PET uptake in subcutaneous Matrigel implants with or without active GZB (in vivo specificity)", "details": "n = 8, SUV normalized to blood pool, 1 h after i.v. 4.39 MBq, mean ± SEM", "method": "as §1"}, "[3]": {"biological_target": "T1, active human GZB", "format": "in vivo", "details": "for mean TBR: mean ± SEM", "method": "(§2) Human melanoma G361 (ATCC®) cells were cultured in McCoy’s Medium (Thermo-Fisher, Waltham, MA, USA) supplemented with 10% fetal bovine serum (Thermo-Fisher) and 1% penicillin–streptomycin (Thermo-Fisher) at 37 °C with 5% CO2. The mice were then subcutaneously (s.c.) implanted with 2 × 10^6 G361 cells suspended in Matrigel and 100 µL of phosphate-buffered saline (Sigma-Aldrich, St. […] To estimate the tumor volume, both the longest and shortest perpendicular diameters were measured. These measurements were then combined using a standard method commonly employed in preclinical studies to approximate the tumor volume, providing a reliable estimate of the three-dimensional tumor size. Four days after tumor implantation, the tumors measured 336 ± 38 mm^3. The mice were then randomly assigned to receive three doses at three-day intervals of either 200 µg/100 µg of an anti-PD1/CTLA4 combination therapy (combination group, n = 15), 200 µg of anti-PD1 as a monotherapy (monotherapy group, n = 15), or a vehicle solution (controls, n = 12) via an intraperitoneal (i.p.) injection. A subset of mice (combination: n = 8, monotherapy: n = 9, controls: n = 6) underwent PET/CT imaging before treatment (baseline), as well as 4 days (timepoint 2), 1 week (timepoint 3), and 2 weeks (timepoint 4) after the treatment began (Figure 7). ^68Gallium was obtained by eluting a ^68Ga/^68Ge generator (Eckert and Ziegler, Berlin, Germany) with 0.1 molar HCl. A total of 2 mL of eluted ^68gallium was mixed with 100 µL of NOTA-CYT-200, stored in a stock solution of 1 mg/mL of metal-free water (OmniTrace Ultra, Millipore, Burlington, MA, USA) and two molar HEPES buffer to adjust the pH to 3.5–4.0. The reaction was incubated at 95 °C for 10 min. The mixture was then adjusted to a pH of 7.0 using sodium hydroxide (NaOH) before being administered intravenously via the tail vein. A total of 3.96 MBq ± 0.81 of ^68Ga-NOTA-CYT-200 was injected 60 ± 5 min prior to PET/CT acquisition. The PET/CT images were acquired in static mode using a small animal Argus PET/CT scanner (Sedecal, Madrid, Spain) in two bed positions over 20 min. The PET images were reconstructed using (2 iterations and 16 subsets) 2D-OSEM and corrected for randoms and scatter. Post-acquisition, the PET/CT images were analyzed by two blinded investigators using the VivoQuant™ software, version 4.0 (InVicro). Standard uptake values (SUVs) for the tumor, liver, and colon were normalized to the blood pool activity measured by drawing a region of interest around the left ventricle of the heart, yielding target-to-background ratios (TBR for tumor, LBR for liver, and CBR for colon). This normalization accounts for the nonspecific background signal and enables a comparison of the uptake across the groups and imaging timepoints. Prism (version 9.2; GraphPad) was used to perform quantitative data analyses. The data are presented as the mean ± SEM. The means of the two groups were compared using unpaired Student’s t-tests when appropriate."}, "[4]": {"biological_target": "T1, active human GZB", "test": "PET/CT intestinal/colon uptake (CBR) in humanized NSG mice with G361 melanoma", "format": "in vivo", "details": "mean ± SEM", "method": "as §2"}, "[5]": {"biological_target": "T1, active human GZB", "test": "PET/CT liver uptake (LBR) in humanized NSG mice with G361 melanoma", "format": "in vivo", "details": "for liver-to-blood ratio (LBR): n = 8, mean ± SEM", "method": "as §2"}, "[6]": {"test": "in vivo", "parameters": "species or system NSG mice", "details": "mouse; for tissue uptake at 1 h: NSG, iv, total radioactivity", "method": "The ^68Ga-NOTA-CYT-200 biodistribution was evaluated for each treatment group four days after the initial dose. Major organs, such as the tumor, heart, lungs, liver, spleen, stomach, pancreas, intestines, kidneys, muscles, bones, skin, and brain from each mouse, were excised exactly one hour after the i.v. administration of 52.83 µCi ± 0.87 (controls, n = 3), 41.83 µCi ± 5.93 (mono, n = 4), or 34.65 µCi ± 3.82 (combination, n = 4) ^68Ga-NOTA-CYT-200. Each organ was weighed individually before measuring the activity with an automatic gamma counter (PerkinElmer Wallac Wizard 2480, Waltham, MA, USA)."}}, "note": "Where two headings read alike, the source gives them in different places."}
{"molecule": "CC[C@H](C)[C@H](NC(=O)CNC(=O)CNC(=O)[C@H](CCC(=O)O)NC(=O)Cc1ccc(CC2CN(CC(=O)O)CCN(CC(=O)O)CCN2CC(=O)O)cc1)C(=O)N[C@H]1CCc2cccc3c2N(C1=O)[C@H](C(=O)N[C@H]1CC(=O)OC1O)C3", "note": "(stereo partly shown) [NOTA-CYT-200]", "values": [{"measurement": "Ki", "setting": "[1]", "value": 4.2, "unit": "nM"}]}
{"molecule": "CC[C@H](C)[C@H](NC(=O)CNC(=O)CNC(=O)[C@H](CCC(=O)O)NC(=O)Cc1ccc(CC2CN(CC(=O)O)CCN(CC(=O)O)CCN2CC(=O)O)cc1)C(=O)N[C@H]1CCc2cccc3c2N(C1=O)[C@H](C(=O)N[C@H]1CC(=O)OC1O)C3", "note": "(stereo partly shown) [^68Ga-NOTA-CYT-200, metal not drawn]", "values": [{"measurement": "radiotracer uptake in implant", "setting": "[2]; Matrigel containing active GZB protein (0.75 µg), p = 0.0045 vs Matrigel without protein", "value": "6.18 ± 2.92"}, {"measurement": "radiotracer uptake in implant", "setting": "[2]; Matrigel without the protein", "value": "2.48 ± 1.01"}, {"measurement": "mean TBR", "setting": "[3]; baseline, combination (anti-PD1/CTLA4), n = 8", "value": "1.47 ± 0.2"}, {"measurement": "mean TBR", "setting": "[3]; baseline, monotherapy (anti-PD1), n = 9", "value": "1.25 ± 0.17"}, {"measurement": "off-target binding in tumors of the control group", "setting": "[3]; control group (vehicle)", "value": "some off-target binding"}, {"measurement": "highest TBR on day 4 or day 7", "setting": "[3]; controls, n = 6", "value": "1.75 ± 0.39"}, {"measurement": "TBR, responder analysis", "setting": "[3]; day 4, treatment non-responders (TNRs), n = 6, p = 0.02 vs controls", "value": "2.7 ± 0.9"}, {"measurement": "TBR, responder analysis", "setting": "[3]; day 4, treatment responders (TRs), n = 3, p < 0.0001 vs controls", "value": "4.0 ± 1.2"}, {"measurement": "mean TBR", "setting": "[3]; day 4 after treatment start, combination (anti-PD1/CTLA4), n = 8, p < 0.0001 vs controls, p = 0.027 vs monotherapy", "value": "3.88 ± 0.47"}, {"measurement": "mean TBR", "setting": "[3]; day 4 after treatment start, controls (vehicle), n = 6", "value": "1.15 ± 0.13"}, {"measurement": "mean TBR", "setting": "[3]; day 4 after treatment start, monotherapy (anti-PD1), n = 9, p = 0.0005 vs controls", "value": "2.84 ± 0.3"}, {"measurement": "mean TBR", "setting": "[3]; day 7, combination (anti-PD1/CTLA4), n = 8, p = 0.0052 vs monotherapy, p = 0.0003 vs controls", "value": "3.5 ± 0.48"}, {"measurement": "mean TBR", "setting": "[3]; day 7, controls (vehicle), n = 6", "value": "1.69 ± 0.2"}, {"measurement": "mean TBR", "setting": "[3]; day 7, monotherapy (anti-PD1), n = 9, p = 0.59 vs controls", "value": "2.14 ± 0.11"}, {"measurement": "mean TBR", "setting": "[3]; day 14, combination (anti-PD1/CTLA4), n = 8, p = 0.01 vs monotherapy, p = 0.05 vs controls", "value": "3.05 ± 0.43"}, {"measurement": "mean TBR", "setting": "[3]; day 14, controls (vehicle), n = 6", "value": "1.97 ± 0.28"}, {"measurement": "mean TBR", "setting": "[3]; day 14, monotherapy (anti-PD1), n = 9, p = 0.88 vs controls", "value": "1.75 ± 0.15"}, {"measurement": "inhibition of the inflammatory response to immunotherapy by tracer injection", "setting": "[3]; in vivo", "value": "did not observe any obvious inhibition of the inflammatory response to immunotherapy"}, {"measurement": "highest TBR on day 4 or day 7", "setting": "[3]; treatment non-responders (TNRs), n = 6, p = 0.175 vs controls", "value": "2.73 ± 0.88"}, {"measurement": "highest TBR on day 4 or day 7", "setting": "[3]; treatment responders (TRs), n = 3, p = 0.0002 vs controls, p = 0.0109 vs TNRs", "value": "4.28 ± 1.20"}, {"measurement": "intestinal/colon-to-blood ratio (CBR)", "setting": "[4]; baseline, combination, n = 8", "value": "3.5 ± 0.62"}, {"measurement": "intestinal/colon-to-blood ratio (CBR)", "setting": "[4]; baseline, controls, n = 6", "value": "2.11 ± 0.56"}, {"measurement": "intestinal/colon-to-blood ratio (CBR)", "setting": "[4]; baseline, monotherapy, n = 9", "value": "2.68 ± 0.43"}, {"measurement": "intestinal/colon-to-blood ratio (CBR)", "setting": "[4]; day 4, combination, n = 8, p = 0.029 vs baseline", "value": "6.81 ± 1.21"}, {"measurement": "intestinal/colon-to-blood ratio (CBR)", "setting": "[4]; day 4, monotherapy, n = 9, p = 0.07 vs baseline", "value": "5.41 ± 0.98"}, {"measurement": "intestinal/colon-to-blood ratio (CBR)", "setting": "[4]; day 7, combination, n = 8, p = 0.96 vs baseline", "value": "6.21 ± 1.23"}, {"measurement": "intestinal/colon-to-blood ratio (CBR)", "setting": "[4]; day 7, monotherapy, n = 9, p = 0.8 vs baseline", "value": "3.75 ± 0.57"}, {"measurement": "intestinal/colon-to-blood ratio (CBR)", "setting": "[4]; day 14, combination, n = 8, p = 0.99 vs baseline", "value": "4.09 ± 0.97"}, {"measurement": "intestinal/colon-to-blood ratio (CBR)", "setting": "[4]; day 14, monotherapy, n = 9, p = 0.99 vs baseline", "value": "2.25 ± 0.36"}, {"measurement": "liver-to-blood ratio (LBR)", "setting": "[5]; baseline, combination", "value": "2.98 ± 0.34"}, {"measurement": "liver-to-blood ratio (LBR)", "setting": "[5]; day 4, combination, p < 0.0001 vs baseline", "value": "6.93 ± 1.04"}, {"measurement": "LBR change versus baseline", "setting": "[5]; day 4, monotherapy, n = 9, p = 0.023", "value": "significant LBR increase on day 4 versus baseline"}, {"measurement": "liver-to-blood ratio (LBR)", "setting": "[5]; day 7, combination, p < 0.0001 vs baseline", "value": "7.16 ± 1.03"}, {"measurement": "liver-to-blood ratio (LBR)", "setting": "[5]; day 14, combination, p = 0.91 vs baseline, p = 0.0004 and 0.0001 vs days 4 and 7", "value": "3.52 ± 0.27"}, {"measurement": "LBR change versus baseline", "setting": "[5]; days 7 and 14, monotherapy, n = 9, p = 0.93 and p = 0.71", "value": "remained comparable to baseline"}, {"measurement": "LBR change versus baseline", "setting": "[5]; post-treatment timepoints, controls, n = 6, p 0.43 to 0.71", "value": "none of the post-treatment LBR values were significantly different from baseline"}, {"measurement": "tissue uptake at 1 h", "setting": "[6]; 41.83 uCi, kidney uptake", "value": "1.47 ± 0.37", "unit": "%ID/g"}, {"measurement": "tissue uptake at 1 h", "setting": "[6]; 41.83 uCi, tumor uptake", "value": "0.25 ± 0.06", "unit": "%ID/g"}, {"measurement": "tissue uptake at 1 h", "setting": "[6]; 52.83 uCi, intestinal uptake", "value": "0.17 ± 0.13", "unit": "%ID/g"}, {"measurement": "tissue uptake at 1 h", "setting": "[6]; 52.83 uCi, kidney uptake", "value": "1.32 ± 0.84", "unit": "%ID/g"}, {"measurement": "tissue uptake at 1 h", "setting": "[6]; 52.83 uCi, tumor uptake", "value": "0.12 ± 0.03", "unit": "%ID/g"}, {"measurement": "main organ of tracer elimination", "setting": "[6]", "value": "kidney as the main organ responsible for tracer elimination"}]}
